Patent US20180228799A1, “Treatment for Neurological and Mental Disorders” (PSYCHOGENICS, INC., priority 2008, published 2018)
“Also recorded” adds a separate entry of the source.

How the values were obtained:
5-HT1A = biological target: T1, 5-HT1A (Homo sapiens, UniProt P08908); settings: Schipper et al.; cited from earlier work
T1 sequence (P08908 1-422): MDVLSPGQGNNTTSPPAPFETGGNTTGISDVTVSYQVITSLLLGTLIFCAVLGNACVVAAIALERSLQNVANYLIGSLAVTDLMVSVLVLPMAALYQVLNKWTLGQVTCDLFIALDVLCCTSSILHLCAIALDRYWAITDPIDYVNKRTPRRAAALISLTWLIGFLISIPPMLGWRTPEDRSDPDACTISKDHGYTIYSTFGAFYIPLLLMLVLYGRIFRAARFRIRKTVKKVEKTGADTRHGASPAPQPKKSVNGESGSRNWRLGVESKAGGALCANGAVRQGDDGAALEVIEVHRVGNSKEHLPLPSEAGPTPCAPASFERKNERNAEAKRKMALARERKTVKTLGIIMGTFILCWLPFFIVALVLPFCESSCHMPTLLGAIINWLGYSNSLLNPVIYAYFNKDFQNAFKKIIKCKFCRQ

5-HT1B = 5-HT1B (Homo sapiens, UniProt P28222); settings: Schipper et al.; cited from earlier work
[1] = tested on: prefrontal cortex (PFC) of C57 mice; assay: Microdialysis in the prefrontal cortex; assay type: in vivo; settings: 3, 10 and 30 mg/kg, six mice per dose group
Protocol: Microdialysis probes were implanted in the prefrontal cortex; coordinates were: AP+2.0 mm, ML+0.7 mm (under an 8° angle) from bregma, DV −3.3 mm from the dura, with the tooth-bar also set at 0 mm. The active dialysis surface length of the membrane was 2 mm. Microdialysis experiments started 48 h (prefrontal cortex) after surgery. Ringer solution was perfused through the microdialysis probe at a flow at 1.166 μl/min using a high precision pump (KdScientific 220). Mouse dual channel swivels (Type 375/D/22QM, Instech Laboratories, Inc.) connected to PEEK-tubing (ID 0.005,″ OD 0.020″) were used to allow unrestrained movements of the mice. Samples were collected by hand 2.5 h after the start of the dialysis probe perfusion to obtain stable baseline values for the monoamines and their metabolites. The average of the first four samples was calculated and represents the baseline level. Samples were collected every 30 min were analyzed by HPLC with electrochemical detection.
Six mice per dose group were treated with vehicle or eltoprazine at 3 mg/kg, 10 mg/kg and 30 mg/kg.

rats = assay: Radial arm maze, scopolamine-induced working memory deficit; assay type: in vivo; settings: eltoprazine 0.3 mg/kg PO + scopolamine 0.5 mg/kg IP, ANOVA, FIG. 2
Protocol: Several mazes, such as the radial arm maze (RAM) have been adapted to assess working memory in rodents. The RAM consists of eight long runways radiating out in a circle from a central compartment. In the RAM rats learn to retrieve food rewards from all or a sub-set of the arms. Working memory is assessed by measuring entries into previously baited arms within a given trial. […] Hippocampal lesions produce deficits both in adults and in the neonatal hippocampal lesion model of schizophrenia.
For training, food deprived rats were placed in an enclosed cylinder in the center of the maze for 20 s, prior to being allowed to explore the maze by removing the cylinder. Each radial arm is baited with a food reward. Animals were given a maximum of 5 minutes to retrieve all food rewards. This training continued once daily for three weeks until animals met the performance criteria for successful acquisition of the task.
Four parameters were recorded to assess the performance of the rat: (1) the number of errors, which is defined as entering an arm that had already been entered, (2) the number of consecutive entries into un-visited arms before the first error occurred (entries to repeat), (3) latency to complete the task, and (4) the total number of arm entries before all food in the eight arms is collected or the maximum session duration is reached. […]

dopamine receptors = settings: Schipper et al.; read-out: Ki (affinity for dopamine receptors); cited from earlier work
5-HT1A/1B receptor = settings: cited from earlier work
5-HT1 = settings: selective with respect to all receptors other than 5-HT1; cited from earlier work
mice = assay: Timing/Peak Procedure operant test (attention, impulsivity); assay type: in vivo; settings: 0.1 mg/kg IP, FIG. 1
Excerpt: The Timing/Peak Procedure test is an operant test in which mice are trained to respond to a food reward at a fixed time interval of 30 sec. Mice learn to increase their responding around the 30 sec time period. This test assesses impulsivity, attention and timing perception. A high peak of responding at the 30 sec interval and narrow spread are signatures of the animal's improved attention and time perception.
In brief, mice were placed in a chamber and trained to lever press for food. After training, animals learn to respond after a fixed interval of 30 sec has elapsed as only this fixed interval response produces a reward. With reinforcement delivery the lever is retracted and an inter-trial-interval commences. Once the animal was trained on the reinforced trials, “peak trials” or unreinforced trials are introduced and intermixed with reinforced trials. During these empty trials, no responses were reinforced and the trial lasts for 120 sec (i.e., the lever is extended but reinforcement is not presented). After the 120 sec elapses, the trial terminated, the lever was retracted and the inter-trial-interval started as before. The animals therefore learned that if after a period of 30 sec, no food has been presented there will be no reinforcement delivery until the lever is retracted and the trial starts again.
To perform well on this task, animals need to learn an association between a response (lever pressing) and the delivery of reinforcement (condensed milk), they need to perceive and remember time, they need to act on the remembered time by responding or by inhibiting a response and finally they need to compare the elapsed time during a trial with their memory for the time for reinforcement. A true cognitive enhancer therefore should decrease responding after reinforcement time, without affecting the peak time, i.e., sharpening the curve and reducing the spread in the response curve. A sharpened curve is indicative of heightened attentional processes.

Sequence of 5-HT1B (P28222 whole entry, species assumed): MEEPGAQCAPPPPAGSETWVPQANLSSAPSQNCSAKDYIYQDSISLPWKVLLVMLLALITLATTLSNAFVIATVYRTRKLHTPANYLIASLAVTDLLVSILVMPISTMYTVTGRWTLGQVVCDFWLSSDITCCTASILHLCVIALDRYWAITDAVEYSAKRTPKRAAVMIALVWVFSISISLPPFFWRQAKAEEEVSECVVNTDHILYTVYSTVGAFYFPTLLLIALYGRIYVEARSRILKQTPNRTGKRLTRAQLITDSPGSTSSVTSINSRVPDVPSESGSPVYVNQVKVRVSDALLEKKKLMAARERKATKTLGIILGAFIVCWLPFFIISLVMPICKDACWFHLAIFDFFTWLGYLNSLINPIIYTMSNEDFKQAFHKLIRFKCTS

For `c1cc2c(c(N3CCNCC3)c1)OCCO2` [Eltoprazine, 1-(2,3-dihydro-1,4-benzodioxanyl-5-yl) piperazine], the “Binding affinity for 5-HT1A” value (5-HT1A) is given as “roughly equipotent affinity”, the “Binding affinity for 5-HT1B” value (5-HT1B) is given as “roughly equipotent affinity” and the “Release of dopamine in the PFC” value ([1]; FIG. 4) is given as “significant release; also recorded: dose-related increase”. The “Release of the dopamine metabolite DOPAC in the PFC” value ([1]; FIG. 5) was “dose-related increase”, the “Release of the metabolite HVA in the PFC” value ([1]; FIG. 6) was “dose-related increase” and the “Release of norepinephrine in the PFC” value ([1]; FIG. 7) was “significant release; also recorded: dose-related increase”. The “Effect on scopolamine-induced decrease of entries to repeat” value (rats) was “attenuated”, the Ki (dopamine receptors) was > 1000 nM and the “Functional mode of action” value (5-HT1A/1B receptor) was “mixed 5-HT1A/1B receptor agonist”. The Binding selectivity (5-HT1) was “selective 5-HT1 ligand”, the Peak of responding (mice) was “sharpens the peak of responding” and the “Spread of the response curve” value (mice) was “significantly reduces the spread”. For the same compound, the Peak of responding (mice; listed as eltoprazine) was “sharpened the peak of responding” and the “Effect following chronic administration” value (mice; chronic administration) was “no loss of effect”.
